Measured values as given in patent US4232148A, “6-Deoxyneamines” (The Upjohn Company, priority 1979, dated 1980).
In brackets after ≈: the same amount, converted by molar mass. Where two headings read alike, the source gives them in different places.

Legend:
Type in all cases: cell-based
B. cereus UC 3145 = assay: standard disc plate assay, zone of inhibition; details: Bacillus cereus, UC3145, read-out: Zones of Inhibition, 1 mg/ml; 12.5 mm paper discs
From the text: (§1) The compounds of formulas (V, VII, IX, XI, XIV, XVI, and XIX) are active as antibacterials and can be used in various environments to erradicate or control susceptible microorganisms. Tables I and II set forth the in vitro antibacterial test results for representative compounds of the present invention. The results were obtained with a standard disc plate assay using 12.5 mm paper discs.

E. coli UC 51 = assay: standard disc plate assay, zone of inhibition; details: Escherichia coli, 12.5 mm paper discs
From the text: as §1

S. lutea UC 130 = assay: standard disc plate assay, zone of inhibition; details: Micrococcus luteus, UC130, read-out: Zones of Inhibition
From the text: as §1

S. schottmeulleri UC 126 = assay: standard disc plate assay, zone of inhibition; details: 12.5 mm paper discs, read-out: Zones of Inhibition; for zone of inhibition at 1000 µg/mL: 1 mg/ml
From the text: as §1

D. pneumoniae UC 41 = assay: standard microplate test in BHI Agar, MIC; details: Streptococcus pneumoniae, UC41, 37°, 20 hours, read-out: Minimal Inhibitory Concentration
Experimental: (§2) The compounds VII, XI, XVβ, XVα and XVI were tested in a standard microplate test in BHI (Brain Heart Infusion) Agar at a concentration of 1 mg./ml. and dilutions thereof at 37° incubation temperature. The end points are read at 20 hours. BHI Agar is supplied by Difco Laboratories, Detroit, Mich., U.S.A. and has the following compositions:
(§3) Calf brains, infusion from: 200 gm.
(§4) Beef heart, infusion from: 250 gm.
(§5) Bacto Proteose-peptone, Difco: 10 gm.
(§6) Bacto-Dextrose, Difco: 1 gm.
(§7) Disodium phosphate: 2.5 gm.

K. pneumoniae UC 58 = assay: standard microplate test in BHI Agar, MIC; details: Klebsiella pneumoniae, UC58, 20 h
Experimental: as §2, §3, §4, §5, §6, §7

P. morganii UC 3186 = assay: standard microplate test in BHI Agar, MIC; details: Morganella morganii, UC3186, 20 h
Experimental: as §2, §3, §4, §5, §6, §7

S. aureus UC 76 = assay: standard microplate test in BHI Agar, MIC; details: Staphylococcus aureus, UC76, 20 h, read-out: Minimal Inhibitory Concentration
Experimental: as §2, §3, §4, §5, §6, §7

S. faecalis UC 694 = assay: standard microplate test in BHI Agar, MIC; details: Enterococcus faecalis
Experimental: as §2, §3, §4, §5, §6, §7

S. flexneri UC 143 = assay: standard microplate test in BHI Agar, MIC; details: Shigella flexneri, UC143, 37°, 20 hours
Experimental: as §2, §3, §4, §5, §6, §7

S. pyogenes UC 152 = assay: standard microplate test in BHI Agar, MIC; details: Streptococcus pyogenes, UC152, 20 h
Experimental: as §2, §3, §4, §5, §6, §7

S. schottmuelleri UC 126 = assay: standard microplate test in BHI Agar, MIC; details: 37°, 20 hours
Experimental: as §2, §3, §4, §5, §6, §7

S. typhi UC 215 = assay: standard microplate test in BHI Agar, MIC; details: Salmonella enterica, 20 h, read-out: Minimal Inhibitory Concentration
Experimental: as §2, §3, §4, §5, §6, §7

E. coli UC 311 = assay: standard microplate test in BHI Agar, MIC; details: Escherichia coli, UC311, 20 h, read-out: Minimal Inhibitory Concentration
Experimental: as §2, §3, §4, §5, §6, §7

P. mirabilis UC 6671 = assay: standard microplate test in BHI Agar, MIC; details: Proteus mirabilis, UC6671, 37°, 20 hours
Experimental: as §2, §3, §4, §5, §6, §7

P. vulgaris UC 93 = assay: standard microplate test in BHI Agar, MIC; details: Proteus vulgaris, UC93, 37°, 20 hours
Experimental: as §2, §3, §4, §5, §6, §7

S. marcescens UC 131 = assay: standard microplate test in BHI Agar, MIC; details: Serratia marcescens, UC131, 37°, 20 hours
Experimental: as §2, §3, §4, §5, §6, §7

E. coli UC 45 = assay: standard microplate test in BHI Agar, MIC; details: Escherichia coli, UC45, 37°, 20 hours, read-out: Minimum Inhibitory Concentration
Experimental: as §2, §3, §4, §5, §6, §7

S. pneumoniae I UC 41 = assay: standard microplate test in BHI Agar, MIC; details: Streptococcus pneumoniae, UC41, 37°, 20 hours, read-out: Minimum Inhibitory Concentration
Experimental: as §2, §3, §4, §5, §6, §7

S. aureus UC 80 = assay: standard disc plate assay, zone of inhibition; details: Staphylococcus aureus, UC80, read-out: Zones of Inhibition, 1 mg/ml; 12.5 mm paper discs
From the text: as §1

[1] = read-out: Minimal Inhibitory Concentration
[2] = UC694, 20 h, read-out: Minimal Inhibitory Concentration
[3] = read-out: Minimum Inhibitory Concentration

SMILES	zone of inhibition at 1000 µg/mL (S. schottmeulleri UC 126)	MIC (D. pneumoniae UC 41)	MIC (S. aureus UC 76)	MIC (S. faecalis UC 694; [2])	MIC (S. flexneri UC 143; [1])	MIC (S. schottmuelleri UC 126; [1])	MIC (E. coli UC 45)	MIC (P. mirabilis UC 6671; [3])	MIC (P. morganii UC 3186; [3])	MIC (P. vulgaris UC 93; [3])	MIC (S. flexneri UC 143; [3])	MIC (S. pneumoniae I UC 41)	MIC (S. schottmuelleri UC 126; [3])	other results
NC[C@H]1O[C@H](O[C@@H]2[C@@H](N)C[C@@H](N)C[C@H]2OC2O[C@H](CO)[C@@H](O)[C@H]2O)[C@H](N)[C@@H](O)[C@@H]1O (single isomer, unassigned) [Compound XVα, O-2,6-Diamino-2,6-dideoxy-α-D-glucopyranosyl (1→4)-O-[α-D-ribofuranosyl(1→5)]-2,6-dideoxy-D-streptamine]	20 mm	125 µg/mL (≈ 285 µM)	125 µg/mL (≈ 285 µM)	> 500 µg/mL	500 µg/mL (≈ 1140 µM)	125 µg/mL (≈ 285 µM)								zone of inhibition at 1000 µg/mL (B. cereus UC 3145): 20 mm; zone of inhibition at 1000 µg/mL (E. coli UC 51; UC51, read-out: Zones of Inhibition, 1 mg/ml): 24 mm; zone of inhibition at 1000 µg/mL (S. lutea UC 130): 16 mm; MIC (K. pneumoniae UC 58; [1]): 15.6 µg/mL (≈ 35.6 µM); MIC (P. morganii UC 3186; [1]): 125 µg/mL (≈ 285 µM); MIC (S. pyogenes UC 152; [1]): 31.2 µg/mL (≈ 71.2 µM); MIC (S. typhi UC 215): 62.5 µg/mL (≈ 143 µM)
NC[C@H]1O[C@H](O[C@@H]2[C@@H](N)C[C@@H](N)C[C@H]2OC2O[C@H](CO)[C@@H](O)[C@H]2O)[C@H](N)[C@@H](O)[C@@H]1O (single isomer, unassigned) [Compound XVβ, O-2,6-Diamino-2,6-dideoxy-α-D-glucopyranosyl (1→4)-O-[β-D-ribofuranosyl(1→5)]-2,6-dideoxy-D-streptamine]	24 mm	15.6 µg/mL (≈ 35.6 µM)	31.2 µg/mL (≈ 71.2 µM)		31.2 µg/mL (≈ 71.2 µM)	7.8 µg/mL (≈ 17.8 µM)								zone of inhibition at 100 µg/mL (E. coli UC 51; UC51, 0.1 mg/ml, read-out: Zones of Inhibition): 20 mm; zone of inhibition at 100 µg/mL (S. schottmeulleri UC 126; 0.1 mg/ml): 16 mm; MIC (E. coli UC 311): 31.2 µg/mL (≈ 71.2 µM); MIC (P. mirabilis UC 6671; [1]): 125 µg/mL (≈ 285 µM); MIC (P. vulgaris UC 93; [1]): 31.2 µg/mL (≈ 71.2 µM); MIC (S. faecalis UC 694; UC694, BHI Agar, 37°, 20 hours, read-out: Minimal Inhibitory Concentration): 500 µg/mL (≈ 1140 µM); MIC (S. marcescens UC 131; [1]): 62.5 µg/mL (≈ 143 µM)
NC[C@H]1O[C@H](O[C@@H]2[C@@H](N)C[C@@H](N)C[C@@H]2O)[C@H](N)[C@@H](O)[C@@H]1O [6-Deoxy-5-epineamine]	21 mm													
C[C@@]1(O)C[C@H](N)C[C@H](N)[C@H]1O[C@H]1O[C@H](CN)[C@@H](O)[C@H](O)[C@H]1N [6-Deoxy-5-methylneamine, 6-Deoxy-5-methyl-neamine]	21 mm						125 µg/mL (≈ 390 µM)	250 µg/mL (≈ 780 µM)	125 µg/mL (≈ 390 µM)	62.5 µg/mL (≈ 195 µM)	125 µg/mL (≈ 390 µM)	62.5 µg/mL (≈ 195 µM)	62.5 µg/mL (≈ 195 µM)	MIC (K. pneumoniae UC 58; [3]): 15.6 µg/mL (≈ 48.7 µM); MIC (S. faecalis UC 694; UC694, 20 h, read-out: Minimum Inhibitory Concentration): > 500 µg/mL; MIC (S. marcescens UC 131; [3]): 125 µg/mL (≈ 390 µM); MIC (S. pyogenes UC 152; [3]): 7.8 µg/mL (≈ 24.3 µM)
NC[C@H]1O[C@H](O[C@H]2[C@H](O)C[C@H](N)C[C@@H]2N)[C@H](N)[C@@H](O)[C@@H]1O [6-deoxyneamine, 6-Deoxyneamine]							31.2 µg/mL (≈ 102 µM)	62.5 µg/mL (≈ 204 µM)	62.5 µg/mL (≈ 204 µM)	31.2 µg/mL (≈ 102 µM)	62.5 µg/mL (≈ 204 µM)	62.5 µg/mL (≈ 204 µM)	31.2 µg/mL (≈ 102 µM)	
NC[C@H]1O[C@H](O[C@@H]2[C@@H](N)C[C@@H](N)C[C@H]2O[C@@H]2C[C@@H](N)[C@H](O)[C@@H](CO)O2)[C@H](N)[C@@H](O)[C@@H]1O [Compound XVI, O-2,6-Diamino-2,6-dideoxy-α-D-glucopyranosyl (1→4)-O-[3-amino-2,3-dideoxy-α-D-arabinohexopyranosyl(1→5)-2,6-dideoxy-D-streptamine]]	15 mm			> 500 µg/mL	> 500 µg/mL	> 500 µg/mL								zone of inhibition at 1000 µg/mL (S. aureus UC 80): 21 mm
